Reference: article PMC10041525, “New Dual Inhibitors of Bacterial Topoisomerases with Broad-Spectrum Antibacterial Activity and In Vivo Efficacy against Vancomycin-Intermediate Staphylococcus aureus” (Journal of Medicinal Chemistry, 2023)

System: 100 A. baumannii strains (50 MDR, 50 non-MDR)
Experiment: MIC broth microdilution at IHMA Europe, panel of 100 strains
Assay type: cell-based

Q: What does the source list for “piperacillin/tazobactam [Piperacillin Tazobactam]”?
A: MIC (A. baumannii IHMA 1769393, Lithuania 2018, Non-MDR): ≤0.25 µg/mL; MIC (A. baumannii IHMA 1769782, Israel 2018, MDR): >128 µg/mL; MIC (A. baumannii IHMA 1769910, Israel 2018, Non-MDR): ≤0.25 µg/mL; MIC (A. baumannii IHMA 1790317, Czech Republic 2018, Non-MDR): ≤0.25 µg/mL; MIC (A. baumannii IHMA 1790916, Romania 2018, Non-MDR): ≤0.25 µg/mL; MIC (A. baumannii IHMA 1791877, Israel 2018, MDR): >128 µg/mL; MIC (A. baumannii IHMA 1792961, Jordan 2018, MDR): >128 µg/mL; MIC (A. baumannii IHMA 1795669, Tunisia 2018, Non-MDR): ≤0.25 µg/mL; MIC (A. baumannii IHMA 1814276, Lebanon 2018, MDR): >128 µg/mL; MIC (A. baumannii IHMA 1815198, Kuwait 2018, MDR): >128 µg/mL; MIC (A. baumannii IHMA 1815856, Israel 2018, MDR): >128 µg/mL; MIC (A. baumannii IHMA 1821468, South Africa 2018, Non-MDR): ≤0.25 µg/mL; MIC (A. baumannii IHMA 1829500, Georgia 2018, Non-MDR): ≤0.25 µg/mL; MIC (A. baumannii IHMA 1830924, United Kingdom 2018, Non-MDR): 16 µg/mL; MIC (A. baumannii IHMA 1849819, Kuwait 2018, MDR): >128 µg/mL; MIC (A. baumannii IHMA 1849829, Kuwait 2018, Non-MDR): ≤0.25 µg/mL; MIC (A. baumannii IHMA 1857118, Slovenia 2018, Non-MDR): ≤0.25 µg/mL; MIC (A. baumannii IHMA 1863631, France 2018, Non-MDR): ≤0.25 µg/mL; MIC (A. baumannii IHMA 1870054, United States 2018, Non-MDR): ≤0.25 µg/mL; MIC (A. baumannii IHMA 1884428, Italy 2018, Non-MDR): ≤0.25 µg/mL; MIC (A. baumannii IHMA 1884990, Germany 2018, Non-MDR): ≤0.25 µg/mL; MIC (A. baumannii IHMA 1900538, Turkey 2018, Non-MDR): ≤0.25 µg/mL; MIC (A. baumannii IHMA 1913773, Kenya 2018, Non-MDR): ≤0.25 µg/mL; MIC (A. baumannii IHMA 1926285, Qatar 2018, Non-MDR): ≤0.25 µg/mL; MIC (A. baumannii IHMA 1926288, Qatar 2018, MDR): >128 µg/mL; MIC (A. baumannii IHMA 1957343, Portugal 2019, Non-MDR): 8 µg/mL; MIC (A. baumannii IHMA 1963732, Turkey 2019, MDR): >128 µg/mL; MIC (A. baumannii IHMA 1967860, Spain 2019, Non-MDR): ≤0.25 µg/mL; MIC (A. baumannii IHMA 1971673, Latvia 2019, MDR): >128 µg/mL; MIC (A. baumannii IHMA 1975075, Israel 2019, Non-MDR): 8 µg/mL; MIC (A. baumannii IHMA 1977077, Kuwait 2019, Non-MDR): 16 µg/mL; MIC (A. baumannii IHMA 1983151, Greece 2019, MDR): >128 µg/mL; MIC (A. baumannii IHMA 1984665, Lithuania 2019, MDR): >128 µg/mL; MIC (A. baumannii IHMA 1986678, Turkey 2019, Non-MDR): ≤0.25 µg/mL; MIC (A. baumannii IHMA 1986738, Turkey 2019, MDR): >128 µg/mL; MIC (A. baumannii IHMA 1987162, Croatia 2019, MDR): >128 µg/mL; MIC (A. baumannii IHMA 1993615, Turkey 2019, MDR): >128 µg/mL; MIC (A. baumannii IHMA 1994284, Italy 2019, MDR): >128 µg/mL; MIC (A. baumannii IHMA 1995161, Czech Republic 2019, Non-MDR): ≤0.25 µg/mL; MIC (A. baumannii IHMA 1997936, Morocco 2019, Non-MDR): 4 µg/mL; MIC (A. baumannii IHMA 1999178, Belgium 2019, Non-MDR): 4 µg/mL; MIC (A. baumannii IHMA 2003279, Turkey 2019, MDR): >128 µg/mL; MIC (A. baumannii IHMA 2014367, Jordan 2019, Non-MDR): 4 µg/mL; MIC (A. baumannii IHMA 2014931, South Africa 2019, Non-MDR): 0.5 µg/mL; MIC (A. baumannii IHMA 2019315, Romania 2019, Non-MDR): ≤0.25 µg/mL; MIC (A. baumannii IHMA 2020360, Croatia 2019, MDR): >128 µg/mL; MIC (A. baumannii IHMA 2031511, Greece 2019, Non-MDR): ≤0.25 µg/mL; MIC (A. baumannii IHMA 2031524, Greece 2019, MDR): >128 µg/mL; MIC (A. baumannii IHMA 2034657, Tunisia 2019, Non-MDR): ≤0.25 µg/mL; MIC (A. baumannii IHMA 2035089, Serbia 2019, MDR): >128 µg/mL; MIC (A. baumannii IHMA 2035134, Serbia 2019, Non-MDR): 4 µg/mL; MIC (A. baumannii IHMA 2038976, Hungary 2019, MDR): >128 µg/mL; MIC (A. baumannii IHMA 2051503, Serbia 2019, MDR): >128 µg/mL; MIC (A. baumannii IHMA 2058329, Slovenia 2019, Non-MDR): ≤0.25 µg/mL; MIC (A. baumannii IHMA 2065587, France 2019, Non-MDR): ≤0.25 µg/mL; MIC (A. baumannii IHMA 2099294, United Kingdom 2019, Non-MDR): 4 µg/mL; MIC (A. baumannii IHMA 2129256, Qatar 2019, Non-MDR): ≤0.25 µg/mL; MIC (A. baumannii IHMA 2154584, Israel 2020, MDR): >128 µg/mL; MIC (A. baumannii IHMA 2155340, Kenya 2020, MDR): >128 µg/mL; MIC (A. baumannii IHMA 2156634, Turkey 2020, MDR): >128 µg/mL; MIC (A. baumannii IHMA 2156709, Turkey 2020, MDR): >128 µg/mL; MIC (A. baumannii IHMA 2157614, Australia 2020, Non-MDR): ≤0.25 µg/mL; MIC (A. baumannii IHMA 2177232, Lithuania 2020, MDR): >128 µg/mL; MIC (A. baumannii IHMA 2177489, Lithuania 2020, MDR): >128 µg/mL; MIC (A. baumannii IHMA 2178574, Ukraine 2020, Non-MDR): 2 µg/mL; MIC (A. baumannii IHMA 2180134, Malaysia 2020, Non-MDR): 2 µg/mL; MIC (A. baumannii IHMA 2180142, Malaysia 2020, MDR): >128 µg/mL; MIC (A. baumannii IHMA 2181370, Morocco 2020, MDR): >128 µg/mL; MIC (A. baumannii IHMA 2183729, Argentina 2020, MDR): >128 µg/mL; MIC (A. baumannii IHMA 2183849, Argentina 2020, Non-MDR): ≤0.25 µg/mL; MIC (A. baumannii IHMA 2184382, Japan 2020, Non-MDR): ≤0.25 µg/mL; MIC (A. baumannii IHMA 2193375, Venezuela 2020, MDR): >128 µg/mL; MIC (A. baumannii IHMA 2193485, Venezuela 2020, Non-MDR): ≤0.25 µg/mL
